Source: PMC5496928, “Data driven polypharmacological drug design for lung cancer: analyses for targeting ALK, MET, and EGFR” (Journal of Cheminformatics, 2017)
pKd: −log10 of the molar value.

What was measured:
[1] = tested on: EGFR (L858R) and EGFR (L858R, T790M); assay: scanKINETIC conclusions stated in text for both EGFR forms together; type: binding; details: for Association behaviour: comparing 1-h and 6-h incubation times; for Covalent binding to EGFR (both forms): interpretation of kinetics data; for Dissociation behaviour: 30-fold dilution following one hour of incubation; for Retention of compound after dilution: relative to bound values at 1 h
Description: (§1) Tests of the compounds confirm suitability for ALK + MET + EGFR polypharmacology optimization (Table 1). […] For compound 1, ^3 with the acrylamide function at the site corresponding to that of WZ4002, both ALK and MET binding were inhibited more weakly compared to EGFR binding. […] The sensitivity to the assay conditions seen for both forms of EGFR and uniformly tighter binding under the new assay conditions may indicate tighter binding for ALK and MET under these altered assay conditions as well.
(§2) The kinetics testing results (Table 1) support several further important conclusions. […] The simultaneous appearance of slow association and slow dissociation complicates the interpretation of the results, but the percentage values shown in Table 1 show the apparent residual amounts of compounds relative to bound values at 1 h. These values indicate retention of roughly half of compound 1, and nearly all of compound 2a, after dilution. […] The similarity of compound 2a to 2b and 1 with respect to structure and binding strength, differing only in the linker to the acrylamide binding group, is further evidence that that it is the covalent binding property that determines the difference in binding kinetics, rather than e.g. a slow conformational change of the target enzymes.
(§3) The three tricyclic compounds (1, 2a and 2b) were purchased from the company ARTTSynthesis (www.arttsynthesis.com). Tests for binding properties were performed by the company DiscoverX (www.discoverx.com), using a concentration of 1 µM against ALK, MET and EGFR variants L858R and L858R_T790M) using KdELECT and scanKINETIC from DiscoverX [124, 125].

EGFR (L858R, T790M) [2] = target: T1, EGFR (L858R, T790M) (Homo sapiens, UniProt P00533, L858R/T790M); assay: KdELECT binding assay (DiscoverX); details: read-out: Kd study, EGFR LR+TM
T1 construct: purchased DiscoverX
Description: as §1, §3

EGFR (L858R) [3] = target: T2, EGFR (L858R) (Homo sapiens, UniProt P00533, L858R); assay: KdELECT binding assay (DiscoverX); details: read-out: Kd study, EGFR LR
T2 construct: purchased DiscoverX
Description: as §1, §3

MET [4] = target: T3, MET (Homo sapiens, UniProt P08581); assay: KdELECT binding assay (DiscoverX); details: read-out: Kd study, MET
T3 construct: purchased DiscoverX
T3 sequence (P08581 25-1390): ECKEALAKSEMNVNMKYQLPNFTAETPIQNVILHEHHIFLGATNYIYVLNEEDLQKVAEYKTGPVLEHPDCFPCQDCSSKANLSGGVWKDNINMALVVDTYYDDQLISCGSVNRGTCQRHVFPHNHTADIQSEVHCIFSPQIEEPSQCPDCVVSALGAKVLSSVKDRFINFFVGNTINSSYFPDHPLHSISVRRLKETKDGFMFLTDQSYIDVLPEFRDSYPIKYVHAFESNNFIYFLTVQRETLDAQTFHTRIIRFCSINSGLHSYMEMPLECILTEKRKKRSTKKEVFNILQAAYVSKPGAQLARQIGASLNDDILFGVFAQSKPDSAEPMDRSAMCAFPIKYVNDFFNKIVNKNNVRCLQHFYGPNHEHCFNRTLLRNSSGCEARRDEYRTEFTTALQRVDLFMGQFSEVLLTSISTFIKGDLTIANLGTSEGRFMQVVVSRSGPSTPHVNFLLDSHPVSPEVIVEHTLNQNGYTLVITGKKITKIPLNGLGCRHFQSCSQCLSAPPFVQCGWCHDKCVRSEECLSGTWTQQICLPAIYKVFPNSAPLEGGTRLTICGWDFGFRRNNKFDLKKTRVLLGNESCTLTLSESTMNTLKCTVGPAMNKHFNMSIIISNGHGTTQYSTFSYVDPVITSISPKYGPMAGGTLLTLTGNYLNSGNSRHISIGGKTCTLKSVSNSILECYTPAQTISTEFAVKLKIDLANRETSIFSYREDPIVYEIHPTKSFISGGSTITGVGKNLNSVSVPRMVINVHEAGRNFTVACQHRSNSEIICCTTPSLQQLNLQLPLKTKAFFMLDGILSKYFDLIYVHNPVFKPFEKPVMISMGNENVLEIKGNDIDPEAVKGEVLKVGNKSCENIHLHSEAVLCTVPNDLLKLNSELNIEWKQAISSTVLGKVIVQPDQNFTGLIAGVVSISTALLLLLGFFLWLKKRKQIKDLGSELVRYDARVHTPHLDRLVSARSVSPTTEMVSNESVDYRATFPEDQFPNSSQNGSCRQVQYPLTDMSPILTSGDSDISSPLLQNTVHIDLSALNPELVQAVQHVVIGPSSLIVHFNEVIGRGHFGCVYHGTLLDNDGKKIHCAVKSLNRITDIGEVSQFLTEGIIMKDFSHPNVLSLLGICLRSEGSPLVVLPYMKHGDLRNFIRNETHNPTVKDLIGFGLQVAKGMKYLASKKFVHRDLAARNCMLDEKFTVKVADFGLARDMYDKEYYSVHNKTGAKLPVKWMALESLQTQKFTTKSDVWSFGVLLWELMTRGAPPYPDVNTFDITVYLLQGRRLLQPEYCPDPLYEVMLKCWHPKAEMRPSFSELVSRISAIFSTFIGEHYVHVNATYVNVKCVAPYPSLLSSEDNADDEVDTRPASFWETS
Description: as §1, §3

ALK [5] = target: T4, ALK (Homo sapiens, UniProt Q9UM73); assay: KdELECT binding assay (DiscoverX); details: read-out: Kd study, ALK
T4 construct: purchased DiscoverX
T4 sequence (Q9UM73 19-1620): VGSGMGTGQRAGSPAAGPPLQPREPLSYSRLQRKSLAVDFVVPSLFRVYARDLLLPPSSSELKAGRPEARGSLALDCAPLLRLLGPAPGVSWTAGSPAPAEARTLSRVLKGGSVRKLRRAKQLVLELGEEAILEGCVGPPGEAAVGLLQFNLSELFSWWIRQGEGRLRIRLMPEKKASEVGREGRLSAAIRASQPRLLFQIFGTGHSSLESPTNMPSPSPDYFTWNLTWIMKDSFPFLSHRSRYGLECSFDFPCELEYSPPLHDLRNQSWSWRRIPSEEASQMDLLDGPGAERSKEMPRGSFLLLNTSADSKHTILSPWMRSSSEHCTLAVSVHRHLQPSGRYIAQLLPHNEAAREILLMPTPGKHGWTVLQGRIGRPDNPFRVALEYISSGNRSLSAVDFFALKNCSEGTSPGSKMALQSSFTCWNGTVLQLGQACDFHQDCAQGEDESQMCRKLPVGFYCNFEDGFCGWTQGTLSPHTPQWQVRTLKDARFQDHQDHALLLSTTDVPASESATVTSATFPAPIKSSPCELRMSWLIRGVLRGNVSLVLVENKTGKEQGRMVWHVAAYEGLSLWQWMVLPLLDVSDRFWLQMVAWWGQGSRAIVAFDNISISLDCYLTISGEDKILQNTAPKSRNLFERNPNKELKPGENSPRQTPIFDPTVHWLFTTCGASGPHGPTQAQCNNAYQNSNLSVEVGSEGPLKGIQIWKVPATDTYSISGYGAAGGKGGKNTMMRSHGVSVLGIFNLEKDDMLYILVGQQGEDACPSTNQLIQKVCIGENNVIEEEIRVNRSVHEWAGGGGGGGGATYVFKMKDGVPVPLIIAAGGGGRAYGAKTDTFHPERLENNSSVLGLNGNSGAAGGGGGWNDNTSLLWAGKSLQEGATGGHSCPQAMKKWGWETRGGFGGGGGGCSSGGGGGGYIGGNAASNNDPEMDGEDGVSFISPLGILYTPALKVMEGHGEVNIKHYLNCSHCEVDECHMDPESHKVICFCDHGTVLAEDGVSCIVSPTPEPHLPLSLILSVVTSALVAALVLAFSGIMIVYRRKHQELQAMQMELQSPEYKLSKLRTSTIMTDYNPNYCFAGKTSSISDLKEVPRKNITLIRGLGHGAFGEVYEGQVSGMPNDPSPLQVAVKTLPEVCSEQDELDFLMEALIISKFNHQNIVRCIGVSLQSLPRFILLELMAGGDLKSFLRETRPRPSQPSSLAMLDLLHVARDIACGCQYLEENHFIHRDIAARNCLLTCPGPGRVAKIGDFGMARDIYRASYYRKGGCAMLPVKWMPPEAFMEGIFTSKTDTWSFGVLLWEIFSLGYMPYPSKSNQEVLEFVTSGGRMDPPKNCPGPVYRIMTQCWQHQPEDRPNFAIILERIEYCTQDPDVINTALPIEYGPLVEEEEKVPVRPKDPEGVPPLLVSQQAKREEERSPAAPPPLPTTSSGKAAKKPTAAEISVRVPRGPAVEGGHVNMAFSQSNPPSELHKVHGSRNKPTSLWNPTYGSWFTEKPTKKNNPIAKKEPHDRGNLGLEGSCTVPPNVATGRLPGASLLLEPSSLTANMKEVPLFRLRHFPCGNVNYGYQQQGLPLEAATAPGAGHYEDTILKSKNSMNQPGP
Description: as §1, §3

EGFR (L858R, T790M) [6] = target: T1, EGFR (L858R, T790M); assay: scanKINETIC binding kinetics assay (DiscoverX); details: for Percentage after 30× dilution, EGFR LR+TM: apparent residual compound relative to bound value at 1 h, significantly higher than 3% indicates slow dissociation; for Percentage comparing 1 or 6 h incubation, EGFR LR+TM: percentages significantly lower than 100% indicate slow association
Description: as §1, §2, §3

EGFR (L858R) [7] = target: T2, EGFR (L858R); assay: scanKINETIC binding kinetics assay (DiscoverX); details: for Percentage after 30× dilution, EGFR LR: apparent residual compound relative to bound value at 1 h, significantly higher than 3% indicates slow dissociation; for Percentage comparing 1 or 6 h incubation, EGFR LR: percentages significantly lower than 100% indicate slow association
Description: as §1, §2, §3

MET [8] = target: T3, MET; details: cited from earlier work
ALK [9] = target: T4, ALK; design: method as in PMID 20033049; details: cited from earlier work
EGFR = tested on: EGFR; design: method as in PMID 20033049; details: cited from earlier work
MET mutant Y1230C = tested on: MET mutant Y1230C; design: method as in PMID 19459657; details: cellular assay; cited from earlier work
[10] = Apparent Kd, EGFR LR+TM (30× dilution), 30× dilution after 1 h incubation
[11] = Kd, EGFR LR+TM (1 h), scanKINETIC, 1 h incubation
[12] = Kd, EGFR LR+TM (6 h), scanKINETIC, 6 h incubation
[13] = Apparent Kd, EGFR LR (30× dilution), 30× dilution after 1 h incubation
[14] = Kd, EGFR LR (1 h), scanKINETIC, 1 h incubation
[15] = Kd, EGFR LR (6 h), scanKINETIC, 6 h incubation

Covalent binding to EGFR (both forms) [1] | pKd (EGFR (L858R, T790M) [2]) | pKd (EGFR (L858R) [3]) | pKd (MET [4]) | pKd (ALK [5]) | pKd (EGFR (L858R, T790M) [6]; [10]) | pKd (EGFR (L858R, T790M) [6]; [11]) | pKd (EGFR (L858R, T790M) [6]; [12]) | Percentage after 30× dilution, EGFR LR+TM (EGFR (L858R, T790M) [6]) [%] | Percentage comparing 1 or 6 h incubation, EGFR LR+TM (EGFR (L858R, T790M) [6]) [%] | pKd (EGFR (L858R) [7]; [13]) | pKd (EGFR (L858R) [7]; [14]) | pKd (EGFR (L858R) [7]; [15]) | Percentage after 30× dilution, EGFR LR (EGFR (L858R) [7]) [%] | Percentage comparing 1 or 6 h incubation, EGFR LR (EGFR (L858R) [7]) [%] | Compound | Association behaviour [1] | Dissociation behaviour [1] | Retention of compound after dilution [1] | also measured
no evidence of covalent binding | 6.57 | 6.11 | 6.48 | 6.41 | 5.39 | 7.24 | 7.00 | 1.4 | 170 | 5.54 | 6.77 | 6.96 | 5.9 | 65 | C=CC(=O)NCc1cccc(Nc2ncc(Cl)c(Nc3ccccc3)n2)c1 [compound 2b, N‐[(3‐{[5‐chloro‐4‐(phenylamino)pyrimidin‐2‐yl]amino}phenyl)methyl]prop‐2‐enamide] | fast association | – | – | Time within which binding is complete [1]: ≤ 1 h; Time within which dissociation is complete ([1]; after 30-fold dilution): ≤ 5 h
able to bind covalently | 6.96 | 6.15 | 6.60 | 6.47 | 7.25 | 7.25 | 8.10 | 100 | 14 | 6.47 | 6.47 | 7.33 | 100 | 14 | C=CC(=O)Nc1cccc(Nc2ncc(Cl)c(Nc3ccccc3)n2)c1 [compound 2a, N‐(3‐{[5‐chloro‐4‐(phenylamino)pyrimidin‐2‐yl]amino}phenyl)prop‐2‐enamide] | relatively slow-binding | slow dissociation behavior | nearly all | –

More lines, now with the values behind:

Compound | Covalent binding to EGFR (both forms) [1] | pKd (EGFR (L858R, T790M) [2]) | pKd (EGFR (L858R) [3]) | pKd (MET [4]) | pKd (ALK [5]) | pKd (EGFR (L858R, T790M) [6]; [10]) | pKd (EGFR (L858R, T790M) [6]; [11]) | pKd (EGFR (L858R, T790M) [6]; [12]) | Percentage after 30× dilution, EGFR LR+TM (EGFR (L858R, T790M) [6]) [%] | Percentage comparing 1 or 6 h incubation, EGFR LR+TM (EGFR (L858R, T790M) [6]) [%] | pKd (EGFR (L858R) [7]; [13]) | pKd (EGFR (L858R) [7]; [14]) | pKd (EGFR (L858R) [7]; [15]) | Percentage after 30× dilution, EGFR LR (EGFR (L858R) [7]) [%] | Percentage comparing 1 or 6 h incubation, EGFR LR (EGFR (L858R) [7]) [%] | Association behaviour [1] | Dissociation behaviour [1] | Retention of compound after dilution [1] | also measured
C=CC(=O)Nc1cccc(Oc2nc(Nc3ccc(N4CCN(C)CC4)cc3OC)ncc2Cl)c1 [WZ4002] | – | – | – | – | – | – | – | – | – | – | – | – | – | – | – | – | – | – | Binding to MET (MET [8]): known to bind; Binding to ALK (ALK [9]): known to bind; Covalent binding to EGFR (EGFR): known to bind covalently to EGFR
C=CC(=O)Nc1cccc(Nc2nc(Nc3ccccc3)ncc2Cl)c1 [compound 1, N‐(3‐{[5‐chloro‐2‐(phenylamino)pyrimidin‐4‐yl]amino}phenyl)prop‐2‐enamide] | – | 6.96 | 6.38 | < 6.00 | 6.10 | – | 7.60 | 8.49 | – | 13 | – | 7.24 | 8.24 | – | 10 | relatively slow-binding | slow dissociation behavior | roughly half | –
C[C@@H](Oc1cc(-c2cnn(C3CCNCC3)c2)cnc1N)c1c(Cl)ccc(F)c1Cl [crizotinib] | – | – | – | – | – | – | – | – | – | – | – | – | – | – | – | – | – | – | Weakening of binding to MET mutant Y1230C (MET mutant Y1230C): 15 fold
